Measured values: patent publication US20260250290A1 (BRISTOL-MYERS SQUIBB COMPANY, priority 2023, published 2026)
Where a name gives a salt, the structure may show the parent alone.

Molecular target: T1, full length SGK1 (Homo sapiens, UniProt O00141)
T1 construct: 125 μM full length SGK1 (Life Technologies Part #PR7358A); purchased Life Technologies PR7358A
T1 sequence (O00141 1-431): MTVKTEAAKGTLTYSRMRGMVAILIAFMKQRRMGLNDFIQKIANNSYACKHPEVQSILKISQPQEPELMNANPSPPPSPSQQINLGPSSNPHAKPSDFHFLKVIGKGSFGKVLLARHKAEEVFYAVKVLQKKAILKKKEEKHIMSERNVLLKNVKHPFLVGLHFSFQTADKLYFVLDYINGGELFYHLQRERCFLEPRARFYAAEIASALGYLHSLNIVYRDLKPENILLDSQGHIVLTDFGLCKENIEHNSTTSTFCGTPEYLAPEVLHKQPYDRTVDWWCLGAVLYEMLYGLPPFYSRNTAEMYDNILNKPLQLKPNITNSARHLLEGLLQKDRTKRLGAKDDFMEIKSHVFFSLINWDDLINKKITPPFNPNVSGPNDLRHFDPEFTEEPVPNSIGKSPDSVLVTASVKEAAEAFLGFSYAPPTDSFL
Assay: SGK1 inhibition Assay A (Caliper LabChip electrophoretic separation of fluorescent peptide substrate and phosphorylated product)
Type: biochemical
Details: Assay A; 20 μM ATP, 40 min incubation; read-out: SGK1 IC50

Row | Compound | IC50 [nM]
1 | CC(=O)N1CC=C(c2cc(N3CCC[C@@H](NC(=O)c4sc(C(F)F)cc4C4CCNC4)C3)c3c(N)ncnn23)C1 (single isomer, unassigned) [Example 398F] | 130
2 | CC(=O)N1CC=C(c2cc(N3CCC[C@@H](NC(=O)c4cccc(N5CCC(C)(O)CC5)n4)C3)c3c(N)ncnn23)C1 [Example 772, (R)-N-(1-(7-(1-acetyl-2,5-dihydro-1H-pyrrol-3-yl)-4-aminopyrrolo[2,1-f][1,2,4]triazin-5-yl)piperidin-3-yl)-6-(4-hydroxy-4-methylpiperidin-1-yl)picolinamide] | 72
3 | CCOC1=C(C(=O)N[C@@H]2CCCN(c3cc(C4=CCN(C(C)=O)C4)n4ncnc(N)c34)C2)CN(CC(F)(F)C(F)(F)F)C1=O [Example 748, (R)-N-(1-(7-(1-acetyl-2,5-dihydro-1H-pyrrol-3-yl)-4-aminopyrrolo[2,1-f][1,2,4]triazin-5-yl)piperidin-3-yl)~4-ethoxy-5-oxo-1-(2,2,3,3,3-pentafluoropropyl)-2,5-dihydro-1H-pyrrole-3-carboxamide] | 318
4 | N#Cc1ccc(C(=O)N[C@@H]2CCCN(c3cc(C#N)n4ncnc(N)c34)C2)s1 [Example 696, (R)—N-(1-(4-amino-7-cyanopyrrolo[2,1-f][1,2,4]triazin-5-yl)piperidin-3-yl)-5-cyanothiophene-2-carboxamide] | 80
5 | N#Cc1ccc(-c2cc(N3CCC[C@@H](NC(=O)c4cc5cc(F)ccc5[nH]4)C3)c3c(N)ncnn23)cn1 [Example 515, (R)-N-(1-(4-amino-7-(6-cyanopyridin-3-yl)pyrrolo[2,1-f][1,2,4]triazin-5-yl)piperidin-3-yl)-5-fluoro-1H-indole-2-carboxamide] | 130
6 | COc1ccc(C)cc1C(=O)N[C@@H]1CCCN(c2cc(-c3ccc(S(C)(=O)=O)cc3)n3ncnc(N)c23)C1 [Example 57, (R)-N-(1-(4-amino-7-(4-(methylsulfonyl)phenyl)pyrrolo[2,1-f][1,2,4]triazin-5-yl)piperidin-3-yl)-2-methoxy-5-methylbenzamide, TFA] | 112
7 | CC(=O)N1CC=C(c2cc(N3CCC[C@@H](NC(=O)C4CC(F)(F)C4)C3)c3c(N)ncnn23)C1 [Example 711, (R)-N-(1-(7-(1-acetyl-2,5-dihydro-1H-pyrrol-3-yl)-4-aminopyrrolo[2,1-f][1,2,4]triazin-5-yl)piperidin-3-yl)-3,3-difluorocyclobutane-1-carboxamide] | 997
8 | CC(=O)N1CC=C(c2cc(N3CCC[C@@H](NC(=O)N4CC[C@@H](O)C4)C3)c3c(N)ncnn23)C1 [Example 874, (R)—N—((R)-1-(7-(1-acetyl-2,5-dihydro-1H-pyrrol-3-yl)-4-aminopyrrolo[2,1-f][1,2,4]triazin-5-yl)piperidin-3-yl)-3-hydroxypyrrolidine-1-carboxamide] | 482
9 | Nc1ncnn2c(C3=CCN(CC(=O)O)C3)cc(N3CCC[C@@H](NC(=O)c4ccc(Cl)s4)C3)c12 [Example 912, (R)-2-(3-(4-amino-5-(3-(5-chlorothiophene-2-carboxamido)piperidin-1-yl)pyrrolo[2,1-f][1,2,4]triazin-7-yl)-2,5-dihydro-1H-pyrrol-1-yl)acetic acid] | 214

Compounds with a lower IC50, results first:

Row | IC50 [nM] | Compound
10 | 51 | CC(=O)N1CC=C(c2cc(N3CCC[C@@H](NC(=O)c4ccn(CC(F)F)n4)C3)c3c(N)ncnn23)C1 [Example 743]
11 | 49 | CC(=O)NCCOc1cc(C(F)F)sc1C(=O)N[C@@H]1CCCN(c2cc(-c3cncnc3)n3ncnc(N)c23)C1 [Example 424, (R)-3-(2-acetamidocthoxy)-N-(1-(4-amino-7-(pyrimidin-5-yl)pyrrolo[2,1-f][1,2,4]triazin-5-yl)piperidin-3-yl)-5-(difluoromethyl)thiophene-2-carboxamide]
12 | 41 | CN(C)CCOc1c(C(=O)N[C@@H]2CCCN(c3cc(-c4ccc(C#N)nc4)n4ncnc(N)c34)C2)[nH]c2ccccc12 [Example 367, (R)-N-(1-(4-amino-7-(6-cyanopyridin-3-yl)pyrrolo[2,1-f][1,2,4]triazin-5-yl)piperidin-3-yl)-3-(2-(dimethylamino)ethoxy)-1H-indole-2-carboxamide]
13 | 21 | Nc1ncnn2c(C3=CCN(C(=O)[C@H]4CCCN4)C3)cc(N3CCC[C@@H](NC(=O)c4ccc(Cl)s4)C3)c12 [Example 889, N-((R)-1-(7-(1-(D-proly1)-2,5-dihydro-1H-pyrrol-3-y1)-4-aminopyrrolo[2,1-f][1,2,4]triazin-5-yl)piperidin-3-y1)-5-chlorothiopbene-2-carboxamide, TFA]
14 | 16 | COC(=O)N1CC=C(c2cc(N3CCC[C@@H](NC(=O)c4sc(C)nc4OCCN(C)C)C3)c3c(N)ncnn23)C1 [Example 353, Methyl (R)-3-(4-amino-5-(3-(4-(2-(dimethylamino)ethoxy)-2-methylthiazole-5-carboxamido)piperidin-1-yl)pyrrolo[2,1-f][1,2,4]triazin-7-yl)-2,5-dihydro-1H-pyrrole-1-carboxylate]
15 | 15 | Cc1cc(CN2CCN(C)CC2)c(C(=O)N[C@@H]2CCCN(c3cc(-c4ccnc(F)c4)n4ncnc(N)c34)C2)s1 [Example 200, (R)—N-(1-(4-amino-7-(2-fluoropyridin-4-yl)pyrrolo[2,1-f][1,2,4]triazin-5-yl)piperidin-3-yl)-5-methyl-3-((4-methylpiperazin-1-yl)methyl)thiophene-2-carboxamide]
16 | 14 | CC(=O)N1CC=C(c2cc(N3CCCC(NC(=O)c4sc(C(F)F)cc4OC4CCN(C(C)C)CC4)C3)c3c(N)ncnn23)C1 (stereo not drawn) [compound 442]
17 | 10 | CS(=O)(=O)c1ccc(-c2cc(N3CC[C@@H](F)[C@@H](NC(=O)c4ccc(Cl)s4)C3)c3c(N)ncnn23)cc1 (relative stereo) [Example 143, rel-N-((3R,4S)-1-(4-amino-7-(4-(methylsulfonyl)phenyl)pyrrolo[2,1-f][1,2,4]triazin-5-yl)-4-fluoropiperidin-3-yl)-5-chlorothiophene-2-carboxamide, TFA]
18 | 8 | CN1CCC(COc2cc(Cl)sc2C(=O)N[C@@H]2CCCN(c3cc(-c4cncnc4)n4ncnc(N)c34)C2)CC1 [Example 643, (R)-N-(1-(4-amino-7-(pyrimidin-5-yl)pyrrolo[2,1-f][1,2,4]triazin-5-y1)piperidin-3-y1)-5-chloro-3-((1-methylpiperidin-4-yl)methoxy)thiophene-2-carboxamide]
19 | 6 | COc1cc(-c2cc(N3CCC[C@@H](NC(=O)c4cccc(N5CCN(C)CC5)n4)C3)c3c(N)ncnn23)ccn1 [Example 786, (R)-N-(1-(4-amino-7-(2-methoxypyridin-4-yl)pyrrolo[2,1-f][1,2,4]triazin-5-yl)piperidin-3-yl)-6-(4-methylpiperazin-1-yl)picolinamide]
20 | 5 | Nc1ncnn2c(C3=CCN(C(=O)[C@@H]4CCOC4)C3)cc(N3CCC[C@@H](NC(=O)c4ccc(Cl)s4)C3)c12 [Example 895, N-((R)-1-(4-amino-7-(1-((R)-tetrahydrofuran-3-carbonyl)-2,5-dihydro-1H-pyrrol-3-yl)pyrrolo[2,1-f][1,2,4]triazin-5-yl)piperidin-3-y1)-5~ chlorothiophene-2-carboxamide]
21 | 3 | CC(=O)NCCOc1cc(Cl)sc1C(=O)N[C@@H]1CCCN(c2cc(C3=CCN(C(C)=O)C3)n3ncnc(N)c23)C1 [Example 328, (R)-3-(2-acetamidoethoxy)-N-(1-(7-(1-acetyl-2,5-dihydro-1H-pyrrol-3-yl)-4-aminopyrrolo[2,1-f][1,2,4]triazin-5-yl)piperidin-3-yl)-5-chlorothiophene-2-carboxamide]
